Measurements reported in ChEMBL document CHEMBL5257074, “Structure Elucidation and Biosynthesis of Nannosterols A and B, Myxobacterial Sterols from Nannocystis sp. MNa10993” (J Nat Prod, 2023).
Calls of active or inactive are those of the source.

Experiments:
[1] = test system: Bacillus subtilis; assay: Antibacterial activity against Bacillus subtilis DSM10T assessed as inhibition of bacterial growth measured after 18 to 28 hrs by microbroth dilution assay; assay type: functional, organism-based; details: time 18-28 hrs
[2] = test system: Escherichia coli; assay: Antibacterial activity against Escherichia coli DSM 1116T assessed as inhibition of bacterial growth measured after 18 to 48 hrs by microbroth dilution assay; assay type: functional, organism-based; details: time 18-48 hrs
[3] = test system: Escherichia coli; assay: Antibacterial activity against Escherichia coli JW0451-2 assessed as inhibition of bacterial growth measured after 18 to 48 hrs by microbroth dilution assay; assay type: functional, organism-based; details: time 18-48 hrs
[4] = test system: Pseudomonas aeruginosa; assay: Antibacterial activity against Pseudomonas aeruginosa PA14 (DSM 19882) assessed as inhibition of bacterial growth measured after 18 to 48 hrs by microbroth dilution assay; assay type: functional, organism-based; details: time 18-48 hrs
[5] = test system: Mycolicibacterium smegmatis; assay: Antibacterial activity against Mycobacterium smegmatis (DSM 43756) assessed as inhibition of bacterial growth measured after 18 to 28 hrs by microbroth dilution assay; assay type: functional, organism-based; details: time 18-28 hrs
[6] = test system: Staphylococcus aureus; assay: Antibacterial activity against Staphylococcus aureus Newman assessed as inhibition of bacterial growth measured after 18 to 28 hrs by microbroth dilution assay; assay type: functional, organism-based; details: time 18-28 hrs
[7] = test system: Candida albicans; assay: Antifungal activity against Candida albicans DSM 1665 assessed as inhibition of fungal growth measured after 18 to 48 hrs by microbroth dilution assay; assay type: functional, organism-based; details: time 18-48 hrs
[8] = test system: Mucor hiemalis; assay: Antifungal activity against Mucor hiemalis DSM 2656 assessed as inhibition of fungal growth measured after 18 to 48 hrs by microbroth dilution assay; assay type: functional, organism-based; details: time 18-48 hrs
[9] = test system: HepG2; assay: Antiproliferative activity against human HepG2 cells incubated for 5 days by MTT assay; assay type: functional, cell-based; details: time 5.0 day

Measured: Activity

C[C@H](CC[C@@H](O)C(C)(C)O)[C@H]1C[C@@H](O)[C@H]2[C@@H]3C(=O)C[C@H]4C[C@@H](O)CC[C@]4(C)[C@H]3CC[C@@]21C
inactive: all assays above

C[C@H](CC[C@@H](O)C(C)(C)O)[C@H]1C[C@@H](O)[C@H]2[C@@H]3C(=O)C[C@H]4C[C@@H](O)CC[C@]4(C)[C@H]3CC[C@@]21CO
inactive: all assays above
